# pIC50: −log10 of the molar value.
# Tests used:
# in vitro = conditions: dog, TOX MDCK CC50
# [1] = tested on: influenza virus A/Taiwan/1/86 (H1N1); assay: organism not typed; format: cell-based; conditions: MDCK, 72 h, CPE in MDCK cells, three days post-virus exposure, ATPlite
Compound,melting point,CC50 at 3 days (in vitro),pIC50 [1]
Cc1c[nH]c(C(=O)N[C@@H]2CCC[C@H](Nc3nc(-c4c[nH]c5c(F)cc(F)cc45)ncc3F)C2)n1 [Compound 135],281.9 °C,8.4 µM,8.70
Cc1cn(C)nc1C(=O)N[C@@H]1CCC[C@H](Nc2nc(-c3c[nH]c4c(F)cc(F)cc34)ncc2F)C1 [Compound 136],265.1 °C,7.6 µM,8.52
O=C(N[C@@H]1CCC[C@H](Nc2nc(-c3c[nH]c4c(F)cc(F)cc34)ncc2F)C1)c1cncnc1 [Compound 138],> 300 °C,> 25 µM,7.41
O=C(N[C@@H]1CCC[C@H](Nc2nc(-c3c[nH]c4c(F)cc(F)cc34)ncc2F)C1)C1CCCN1 (stereo partly drawn) [Compound 139],208.1 °C,11.5 µM,5.70
Cn1ncnc1C(=O)N[C@@H]1CCC[C@H](Nc2nc(-c3c[nH]c4c(F)cc(F)cc34)ncc2F)C1 [Compound 140],172.7 °C,> 25 µM,8.15
Cc1[nH]nnc1C(=O)N[C@@H]1CCC[C@H](Nc2nc(-c3c[nH]c4c(F)cc(F)cc34)ncc2F)C1 [Compound 141],256.6 °C,8.4 µM,8.70
O=C(N[C@@H]1CCC[C@H](Nc2nc(-c3c[nH]c4c(F)cc(F)cc34)ncc2F)C1)c1c[nH]cn1 [Compound 142],219.9 °C,10 µM,8.70
Cn1cnnc1C(=O)N[C@@H]1CCC[C@H](Nc2nc(-c3c[nH]c4c(F)cc(F)cc34)ncc2F)C1 [Compound 143],169.8 °C,9.9 µM,7.41
Cc1cnc(C(=O)N[C@@H]2CCC[C@H](Nc3nc(-c4c[nH]c5c(F)cc(F)cc45)ncc3F)C2)n1C [Compound 144],204.9 °C,7.2 µM,8.40
Nc1nc(C(=O)N[C@@H]2CCC[C@H](Nc3nc(-c4c[nH]c5c(F)cc(F)cc45)ncc3F)C2)cs1 [Compound 145],178.1 °C,6.8 µM,8.70
Nc1n[nH]cc1C(=O)N[C@@H]1CCC[C@H](Nc2nc(-c3c[nH]c4c(F)cc(F)cc34)ncc2F)C1 [Compound 146],169.7 °C,10.7 µM,9.00
O=C(O)c1n[nH]nc1C(=O)N[C@@H]1CCC[C@H](Nc2nc(-c3c[nH]c4c(F)cc(F)cc34)ncc2F)C1 [Compound 147],> 300 °C,> 25 µM,7.33
O=C(N[C@@H]1CCC[C@H](Nc2nc(-c3c[nH]c4c(F)cc(F)cc34)ncc2F)C1)[C@H]1CCCN1 [Compound 148],220.8 °C,10.3 µM,6.22
Cn1nc(C(=O)N[C@@H]2CCC[C@H](Nc3nc(-c4c[nH]c5c(F)cc(F)cc45)ncc3F)C2)cc1N [Compound 149],253.4 °C,10 µM,8.70
Cc1sc(N)nc1C(=O)N[C@@H]1CCC[C@H](Nc2nc(-c3c[nH]c4c(F)cc(F)cc34)ncc2F)C1 [Compound 150],248.4 °C,4.8 µM,8.52
Cn1nnnc1C(=O)N[C@@H]1CCC[C@H](Nc2nc(-c3c[nH]c4c(F)cc(F)cc34)ncc2F)C1 [Compound 152],250.3 °C,> 5 µM,7.40
Cn1nnc(C(=O)N[C@@H]2CCC[C@H](Nc3nc(-c4c[nH]c5c(F)cc(F)cc45)ncc3F)C2)n1 [Compound 153],230 °C,> 1 µM,7.70
O=C(N[C@@H]1CCC[C@H](Nc2nc(-c3c[nH]c4c(F)cc(F)cc34)ncc2F)C1)c1cscn1 [Compound 154],266.8 °C,15.9 µM,8.70
O=C(N[C@@H]1CCC[C@H](Nc2nc(-c3c[nH]c4c(F)cc(F)cc34)ncc2F)C1)c1csc(C(=O)O)n1 [Compound 155],260.8 °C,> 22.8 µM,8.52

# Reference: US10597390B2, “Indoles for use in influenza virus infection” (Janssen Sciences Ireland UC, priority 2014, dated 2020)
